Measurements published in patent publication US20210380595A1 (ARAXES PHARMA LLC, priority 2018, published 2021).

Each compound was assayed against T1, KRAS G12C 1-169, his-tagged protein, GDP-loaded (Homo sapiens, UniProt P01116, G12C) (assay: Biochemical assay: covalent modification of KRAS G12C measured by mass spectrometry (RapidFire/TOF or Q-Exactive)). Conditions: tested at 32 μM.
T1 construct: KRAS G12C 1-169, his-tagged protein, GDP-loaded
Assay type: binding
How it was run: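 GDP-loaded KRAS G12C 1-169 (his-tagged, 2 μM or 0.5 μM in 20 mM Hepes, 150 mM NaCl, 1 mM MgCl2) reacted with compound at 32 μM or 8 μM final, then quenched with formic acid. Intact-protein LC-MS (RapidFire/TOF or Q-Exactive) with charge-envelope deconvolution; % modification from modified vs unmodified peak intensities.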
Note: time not given here.

| SMILES | Bind % |
| --- | --- |
| C=CC(=O)N1CC2(CCN(c3cc(N4CCC(O)CC4)cc(-c4c(C)ccc5[nH]ncc45)c3C#N)CC2)C1 [Compound I-81, 2-(2-acryloyl-2,7-diazaspiro[3.5]nonan-7-yl)-4-(4-hydroxypiperidin-1-yl)-6-(5-methyl-1H-indazol-4-yl)benzonitrile] | + (+ indicates binding activity greater than 0% and up to 50%) |
| C=CC(=O)N1CC2(CCN(c3cc(N4CCC(N5CCN(C)[C@@H](C)C5)CC4)cc(-c4c(C)ccc5[nH]ncc45)c3C#N)CC2)C1 [Compound I-82, 2-(2-acryloyl-2,7-diazaspiro[3.5]nonan-7-yl)-4-(4-((S)-3,4-dimethyl-piperazin-1-yl)piperidin-1-yl)-6-(5-methyl-1H-indazol-4-yl)benzonitrile] | + (+ indicates binding activity greater than 0% and up to 50%) |
| C=CC(=O)N1CC2(CCN(c3ccc(OCCCN(C)C)c(-c4c(C)ccc5[nH]ncc45)c3C#N)CC2)C1 [Compound I-83, 6-(2-acryloyl-2,7-diazaspiro[3.5]nonan-7-yl)-3-(3-(dimethylamino)propoxy)-2-(5-methyl-1H-indazol-4-yl)benzonitrile] | + (+ indicates binding activity greater than 0% and up to 50%) |
| C=CC(=O)N1CC2(CCN(c3cc(N4CCOCC4)c(OC)c(-c4c(C)ccc5[nH]ncc45)c3C#N)CC2)C1 [Compound I-84, 6-(2-acryloyl-2,7-diazaspiro[3.5]nonan-7-yl)-3-methoxy-2-(5-methyl-1H-indazol-4-yl)-4-morpholino-benzonitrile] | + (+ indicates binding activity greater than 0% and up to 50%) |
| C=CC(=O)N1CC2(CCN(c3ccc(Cl)c(-c4c(C)ccc5[nH]ncc45)c3C#N)CC2)C1 [Compound I-85, 6-(2-acryloyl-2,7-diazaspiro[3.5]nonan-7-yl)-3-chloro-2-(5-methyl-1H-indazol-4-yl)benzonitrile] | + (+ indicates binding activity greater than 0% and up to 50%) |
| C=CC(=O)N1CCC2(CCN(c3ccc(F)c(-c4c(C)ccc5[nH]ncc45)c3C#N)CC2)C1 [Compound I-94, 6-(2-acryloyl-2,8-diazaspiro[4.5]decan-8-yl)-3-fluoro-2-(5-methyl-1H-indazol-4-yl)benzonitrile] | + (+ indicates binding activity greater than 0% and up to 50%) |
| C=CC(=O)N1CCC2(C1)CN(c1ccc(F)c(-c3c(C)ccc4[nH]ncc34)c1C#N)C2 [Compound I-95, 6-(6-acryloyl-2,6-diazaspiro[3.4]octan-2-yl)-3-fluoro-2-(5-methyl-1H-indazol-4-yl)benzonitrile] | + (+ indicates binding activity greater than 0% and up to 50%) |
| C=CC(=O)N1CCC2(CC1)CN(c1ccc(F)c(-c3c(C)ccc4[nH]ncc34)c1C#N)C2 [Compound I-96, 6-(7-acryloyl-2,7-diazaspiro[3.5]nonan-2-yl)-3-fluoro-2-(5-methyl-1H-indazol-4-yl)benzonitrile] | + (+ indicates binding activity greater than 0% and up to 50%) |
| C=CC(=O)N1CC2(CCN(c3cc(N4CCOCC4)c(F)c(-c4c(C)ccc5cnn(C)c45)c3C#N)CC2)C1 [Compound I-97, 6-(2-acryloyl-2,7-diazaspiro[3.5]nonan-7-yl)-2-(1,6-dimethyl-1H-indazol-7-yl)-3-fluoro-4-morpholino-benzonitrile] | + (+ indicates binding activity greater than 0% and up to 50%) |
| C=CC(=O)N1CC2(CCN(c3ccc(F)c(-c4c(C)ccc5[nH]ncc45)c3)C2)C1 [Compound I-99] | ++ (++ indicates binding activity from 50 to 75%) |
| C=CC(=O)N1CC2(CCN(c3ccc(OC4CCN(C)CC4)c(-c4c(C)ccc5[nH]ncc45)c3C#N)CC2)C1 [Compound I-100, 6-(2-acryloyl-2,7-diazaspiro[3.5]nonan-7-yl)-2-(5-methyl-1H-indazol-4-yl)-3-((1-methylpiperidin-4-yl)oxy)benzo-nitrile] | + (+ indicates binding activity greater than 0% and up to 50%) |
| C=CC(=O)N1CC2(CCN(c3ccc(C#N)c(-c4c(C)ccc5[nH]ncc45)c3)C2)C1 [Compound I-101, 4-(2-acryloyl-2,6-diazaspiro[3.4]octan-6-yl)-2-(5-methyl-1H-indazol-4-yl)benzonitrile] | + (+ indicates binding activity greater than 0% and up to 50%) |
| C=CC(=O)N1CC2(CCN(c3ccc(F)c(-c4c(C)ccc5[nH]ncc45)c3)CC2)C1 [Compound I-102, 1-(7-(4-fluoro-3-(5-methyl-1H-indazol-4-yl)phenyl)-2,7-diazaspiro[3.5]nonan-2-yl)prop-2-en-1-one] | + (+ indicates binding activity greater than 0% and up to 50%) |
| C=CC(=O)N1CC2(CCN(c3cc(OCCCN(C)C)c(OC)c(-c4c(C)ccc5[nH]ncc45)c3)CC2)C1 [Compound I-103, 1-(7-(3-(3-(dimethylamino)propoxy)-4-methoxy-5-(5-methyl-1H-indazol-4-yl)phenyl)-2,7-diazaspiro[3.5]nonan-2-yl)prop-2-en-1-one] | ++ (++ indicates binding activity from 50 to 75%) |
| C=CC(=O)N1CC2(CCN(c3cc(OCCCN(C)C)c(OC)c(-c4c(C)ccc5cnn(C)c45)c3C#N)CC2)C1 [Compound I-104] | + (+ indicates binding activity greater than 0% and up to 50%) |
| C=CC(=O)N1CC2(CCN(c3ccc(C#N)c(-c4c(C)ccc5[nH]ncc45)c3)CC2)C1 [Compound I-105, 4-(2-acryloyl-2,7-diazaspiro[3.5]nonan-7-yl)-2-(5-methyl-1H-indazol-4-yl)benzonitrile] | + (+ indicates binding activity greater than 0% and up to 50%) |
| C=CC(=O)N1CC2(CCN(c3ccc(F)c(-c4c(C)ccc5[nH]ncc45)c3C#N)CC2)C1 [Compound I-106, 6-(2-acryloyl-2,7-diazaspiro[3.5]nonan-7-yl)-3-fluoro-2-(5-methyl-1H-indazol-4-yl)benzonitrile] | + (+ indicates binding activity greater than 0% and up to 50%) |
| C=CC(=O)N1CC2(CCN(c3cc(OCc4ccccn4)cc(-c4c(C)ccc5[nH]ncc45)c3)CC2)C1 [Compound I-107, 1-(7-(3-(5-methyl-1H-indazol-4-yl)-5-(pyridin-2-ylmethoxy)phenyl)-2,7-diazaspiro[3.5]nonan-2-yl)prop-2-en-1-one] | + (+ indicates binding activity greater than 0% and up to 50%) |
| C=CC(=O)N1CC2(CCN(c3cc(N4CCOCC4)cc(-c4c(C)ccc5[nH]ncc45)c3C#N)CC2)C1 [Compound I-108, 2-(2-acryloyl-2,7-diazaspiro[3.5]nonan-7-yl)-6-(5-methyl-1H-indazol-4-yl)-4-morpholino-benzonitrile] | + (+ indicates binding activity greater than 0% and up to 50%) |
| C=CC(=O)N1CC2(CCN(c3ccc(OC4CCN(C)CC4)c(-c4c(C)ccc5cnn(C)c45)c3C#N)CC2)C1 [Compound I-109, 6-(2-acryloyl-2,7-diazaspiro[3.5]nonan-7-yl)-2-(1,6-dimethyl-1H-indazol-7-yl)-3-((1-methylpiperidin-4-yl)oxy)benzo-nitrile] | + (+ indicates binding activity greater than 0% and up to 50%) |
| C=CC(=O)N1CC2(CCN(c3ccc(F)c(-c4c(C)ccc5[nH]ncc45)c3C#N)CC2)C1 [Compound I-111, 6-(2-acryloyl-2,7-diazaspiro[3.5]nonan-7-yl)-3-fluoro-2-(5-methyl-1H-indazol-4-yl)benzonitrile] | + (+ indicates binding activity greater than 0% and up to 50%) |
| C=CC(=O)N1CC2(CCN(c3ccc(C(F)(F)F)c(-c4c(C)ccc5[nH]ncc45)c3C#N)CC2)C1 [Compound I-112, 6-(2-acryloyl-2,7-diazaspiro[3.5]nonan-7-yl)-2-(5-methyl-1H-indazol-4-yl)-3-(trifluoromethyl) benzonitrile] | + (+ indicates binding activity greater than 0% and up to 50%) |
| C=CC(=O)N1CC2(CCN(c3cc(N4CC(N(C)C)C4)c(F)c(-c4c(C)ccc5[nH]ncc45)c3C#N)CC2)C1 [Compound I-114, 6-(2-acryloyl-2,7-diazaspiro[3.5]nonan-7-yl)-4-(3-(dimethylamino)azetidin-1-yl)-3-fluoro-2-(5-methyl-1H-indazol-4-yl)benzonitrile] | + (+ indicates binding activity greater than 0% and up to 50%) |
| C=CC(=O)N1CC2(CCN(c3ccc(Nc4ccccc4)c(-c4c(C)ccc5[nH]ncc45)c3C#N)CC2)C1 [Compound I-115, 6-(2-acryloyl-2,7-diazaspiro[3.5]nonan-7-yl)-2-(5-methyl-1H-indazol-4-yl)-3-(phenylamino) benzonitrile] | + (+ indicates binding activity greater than 0% and up to 50%) |

Same assay, conditions: tested at a concentration of 8 μM

| SMILES | Bind % |
| --- | --- |
| C=CC(=O)N1CC2(CCN(c3cc(N4CCOCC4)c(F)c(-c4c(C)ccc5[nH]ncc45)c3C#N)CC2)C1 [Compound I-80, 6-(2-acryloyl-2,7-diazaspiro[3.5]nonan-7-yl)-3-fluoro-2-(5-methyl-1H-indazol-4-yl)-4-morpholino-benzonitrile] | + (+ indicates binding activity greater than 0% and up to 50%) |
| C=CC(=O)N1CC2(CCN(c3ccc(Cl)c(-c4c(C)ccc5[nH]ncc45)c3C#N)C2)C1 [Compound I-98, 6-(2-acryloyl-2,6-diazaspiro[3.4]octan-6-yl)-3-chloro-2-(5-methyl-1H-indazol-4-yl)benzonitrile] | ++ (++ indicates binding activity from 50 to 75%) |
| C=CC(=O)N1CC2(C1)CN(c1ccc(F)c(-c3c(C)ccc4[nH]ncc34)c1C#N)C2 [Compound I-110, 6-(6-acryloyl-2,6-diazaspiro[3.3]heptan-2-yl)-3-fluoro-2-(5-methyl-1H-indazol-4-yl)benzonitrile] | + (+ indicates binding activity greater than 0% and up to 50%) |
| C=CC(=O)N1CC2(CCN(c3cc(OCCCN(C)C)c(F)c(-c4c(C)ccc5[nH]ncc45)c3C#N)CC2)C1 [Compound I-113, 6-(2-acryloyl-2,7-diazaspiro[3.5]nonan-7-yl)-4-(3-(dimethylamino)propoxy)-3-fluoro-2-(5-methyl-1H-indazol-4-yl)benzonitrile] | + (+ indicates binding activity greater than 0% and up to 50%) |
